Nine compounds from patent US8022205B2, “Pyrimidine derivatives as PI3K inhibitor and use thereof” (Chugai Seiyaku Kabushiki Kaisha, priority 2006, dated 2011) can be followed below.

Assay [1] relates to human prostate cancer cell line PC3. The assay can be described thus: Cell proliferation inhibitory activity (Cell Counting Kit-8), prostate cancer PC3. The assay is classed as cell-based. Conditions: 96 h, PC3, 4 days. Summed up:
(§1)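 PC3 (3000 cells/well) or NCI-H460 (1000 cells/well) exposed to compound for 4 days at 37 °C in CO2. CCK-8 absorbance at 450 nm (reference 615 nm); percent proliferation inhibition calculated at 2.5 µM.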
In general terms: Formazan colour is commonly taken as a measure of viable cells.

The subject of assay [2] is human colon cancer cell line HCT116. The experiment in a line: Cell proliferation inhibitory activity (Cell Counting Kit-8), colon cancer HCT116. The assay is classed as cell-based. Conditions: HCT-116, 96 h, HCT116, 4 days. Summed up: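 HCT116 cells (2000/well) were exposed to compounds for 4 days at 37 °C under CO2. Viability was then read with CCK-8 as absorbance at 450 nm (reference 615 nm).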

The target in a further assay is human PI3K(p110α/p85α) (Homo sapiens, UniProt P42336). The assay can be described thus: Measurement of PI3K inhibitory activity (AlphaScreen GST Detection Kit). The assay is classed as biochemical. Conditions: 10 μM ATP, 4 μM PI(4,5)P2, read-out: Enzyme inhibitory activity (IC50, μM) PI3K α. Summed up:
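Baculovirus-expressed human p110α/p85α was preincubated with compound for 20 min at room temperature, then reacted with 4 μM PI(4,5)P2 and 10 μM ATP (pH 7.5, 2.5 mM MgCl2) for 15 min at 37 °C. PIP3 product was detected by AlphaScreen competition of GST-GRP1 with biotin-PI(3,4,5)P3 after 1 h at room temperature.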
(In Alpha technology, singlet oxygen from a donor bead excites a nearby acceptor bead.)

Assay [3] deals with human lung cancer cell line NCI-H460. The assay can be described thus: Cell proliferation inhibitory activity (Cell Counting Kit-8), lung cancer NCI-H460. Conditions: 96 h, NCI-H460, 4 days, read-out: Cell proliferation inhibitory activity (% Inhibition at 2.5 μM) Non-small cell lung cancer (NCI-H460). The assay is classed as cell-based. Summed up: as §1

Chain of human PI3K(p110α/p85α) (P42336 whole entry): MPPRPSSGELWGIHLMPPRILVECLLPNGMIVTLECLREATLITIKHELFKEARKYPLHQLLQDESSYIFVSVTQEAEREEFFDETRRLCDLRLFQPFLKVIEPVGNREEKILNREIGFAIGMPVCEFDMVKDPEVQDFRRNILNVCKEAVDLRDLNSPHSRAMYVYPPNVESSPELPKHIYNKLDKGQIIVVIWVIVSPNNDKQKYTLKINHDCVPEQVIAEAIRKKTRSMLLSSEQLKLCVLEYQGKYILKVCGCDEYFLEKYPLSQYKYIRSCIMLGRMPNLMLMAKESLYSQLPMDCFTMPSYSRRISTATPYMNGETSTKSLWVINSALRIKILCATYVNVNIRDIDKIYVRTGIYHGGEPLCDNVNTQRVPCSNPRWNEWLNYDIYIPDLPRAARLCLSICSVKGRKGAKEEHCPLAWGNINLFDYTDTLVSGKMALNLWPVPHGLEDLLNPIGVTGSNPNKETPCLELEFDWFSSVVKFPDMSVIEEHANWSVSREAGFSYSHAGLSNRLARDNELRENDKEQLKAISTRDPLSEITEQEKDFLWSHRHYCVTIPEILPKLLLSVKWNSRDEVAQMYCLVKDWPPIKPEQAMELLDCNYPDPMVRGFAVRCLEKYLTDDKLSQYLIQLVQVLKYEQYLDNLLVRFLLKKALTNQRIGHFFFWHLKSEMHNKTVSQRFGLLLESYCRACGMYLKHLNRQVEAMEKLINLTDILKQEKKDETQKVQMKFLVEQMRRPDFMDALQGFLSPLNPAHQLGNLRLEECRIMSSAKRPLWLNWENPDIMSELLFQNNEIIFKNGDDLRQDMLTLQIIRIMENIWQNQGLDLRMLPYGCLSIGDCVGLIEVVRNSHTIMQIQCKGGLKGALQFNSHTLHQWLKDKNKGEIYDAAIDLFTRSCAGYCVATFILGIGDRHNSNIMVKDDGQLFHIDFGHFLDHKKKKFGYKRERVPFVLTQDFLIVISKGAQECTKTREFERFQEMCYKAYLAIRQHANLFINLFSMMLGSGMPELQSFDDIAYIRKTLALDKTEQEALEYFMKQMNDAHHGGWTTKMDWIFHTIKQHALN
Chain of human PI3K(p110α/p85α) (P27986 whole entry partner): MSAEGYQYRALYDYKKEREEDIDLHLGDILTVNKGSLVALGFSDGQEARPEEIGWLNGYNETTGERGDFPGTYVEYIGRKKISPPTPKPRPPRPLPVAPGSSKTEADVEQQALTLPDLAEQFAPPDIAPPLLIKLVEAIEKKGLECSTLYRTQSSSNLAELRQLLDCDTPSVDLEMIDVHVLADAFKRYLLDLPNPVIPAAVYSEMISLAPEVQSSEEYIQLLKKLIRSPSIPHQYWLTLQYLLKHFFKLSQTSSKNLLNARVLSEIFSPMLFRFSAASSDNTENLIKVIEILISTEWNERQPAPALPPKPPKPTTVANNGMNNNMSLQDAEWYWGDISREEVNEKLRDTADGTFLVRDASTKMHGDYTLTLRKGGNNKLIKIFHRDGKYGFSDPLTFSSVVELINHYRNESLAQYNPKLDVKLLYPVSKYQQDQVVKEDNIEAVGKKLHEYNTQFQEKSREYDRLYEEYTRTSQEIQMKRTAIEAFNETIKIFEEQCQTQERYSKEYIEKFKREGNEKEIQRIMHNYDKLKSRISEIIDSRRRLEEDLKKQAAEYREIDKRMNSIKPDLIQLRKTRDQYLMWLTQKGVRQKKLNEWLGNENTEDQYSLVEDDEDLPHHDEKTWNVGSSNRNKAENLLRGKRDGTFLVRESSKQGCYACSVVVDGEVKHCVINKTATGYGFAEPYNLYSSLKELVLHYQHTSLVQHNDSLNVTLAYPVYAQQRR

As a reminder, the IC50 is the concentration that gives 50% inhibition. In the case of `Nc1ncc(-c2nc(N3CCOCC3)nc3c2CCN3c2ccc(CN3CCN(CCF)CC3)cc2)cn1` [Example D-329, 5-(7-{4-[4-(2-fluoroethyl)-piperazin-1-ylmethyl]-phenyl}-2-morpholin-4-yl-6,7-dihydro-5H-pyrrolo[2,3-d]pyrimidin-4-yl)-pyrimidin-2-ylamine], the inhibition at 2.5 µM in assay [1] stood at 65%; in assay [2] it was 73%; in assay [3], 81%. Also, on human PI3K(p110α/p85α), the IC50 was found to be 0.26 µM.
For `Nc1ncc(-c2nc(N3CCOCC3)nc3c2CCN3c2ccc(CN3CCN(CCC(F)(F)F)CC3)cc2)cn1` [Example D-332, 5-(2-morpholin-4-yl-7-{4-[4-(3,3,3-trifluoropropyl)piperazin-1-ylmethyl]-phenyl}-6,7-dihydro-5H-pyrrolo[2,3-d]pyrimidin-4-yl}-pyrimidin-2-ylamine], in that order: 43%, 60%, 54% and 0.21 µM.
In the case of `CN1CCN(Cc2ccc3cc(N4CCc5c(-c6cnc(N)nc6)nc(N6CCOCC6)nc54)ccc3c2)CC1` [Example D-333, 5-{7-[6-(4-methyl-piperazin-1-ylmethyl)naphthalen-2-yl]-2-morpholin-4-yl-6,7-dihydro-5H-pyrrolo[2,3-d]pyrimidin-4-yl}-pyrimidin-2-ylamine], the inhibition at 2.5 µM in assay [1] stood at 43%; in assay [2] it was 99%; in assay [3], 102%. In addition, the IC50 at human PI3K(p110α/p85α) was 0.16 µM.
For `Nc1ncc(-c2nc(N3CCOCC3)nc3c2CCN3c2ccc(CNCc3cccnc3)cc2)cn1` [Example D-334], in that order: 90%, 93%, 94% and 0.2 µM.
With `CN(C)CCNC(=O)c1cccc(-c2nc(N3CCOCC3)nc3c2CCN3c2cccnc2)c1` [Example G-05, N-(2-dimethylaminoethyl)-3-(2-morpholin-4-yl-7-pyridin-3-yl-6,7-dihydro-5H-pyrrolo[2,3-d]pyrimidin-4-yl)-benzamide], the inhibition at 2.5 µM in assay [1] is 49%; in assay [2], 38%; in assay [3] it was 55%. At human PI3K(p110α/p85α), the IC50 came to 0.36 µM.
Turning to `CN(C)CCOC(=O)c1cccc(-c2nc(N3CCOCC3)nc3c2CCN3c2cccnc2)c1` [Example G-27, 3-(2-Morpholin-4-yl-7-pyridin-3-yl-6,7-dihydro-5H-pyrrolo[2,3-d]pyrimidin-4-yl)-benzoic acid 2-dimethylamino-ethyl ester], the inhibition at 2.5 µM in assay [1] stood at 48%; in assay [2], 44%; in assay [3], 18%. Besides, the IC50 on human PI3K(p110α/p85α) amounted to 0.33 µM.
As to `CN(C)CCCNc1cc(N2CCc3c(-c4cccc(O)c4)nc(N4CCOCC4)nc32)ccn1` [Example H-12, 3-{7-[2-(3-Dimethylamino-propylamino)-pyridin-4-yl]-2-morpholin-4-yl-6,7-dihydro-5H-pyrrolo[2,3-d]pyrimidin-4-yl}-phenol], the values for the inhibition at 2.5 µM in assay [1], in assay [2] and in assay [3] were 76%, 82% and 71%, respectively. At human PI3K(p110α/p85α), the IC50 is 0.02 µM.
On to `CN(C)CCOc1cc(N2CCc3c(-c4cnc(N)nc4)nc(N4CCOCC4)nc32)ccn1` [Example H-32, 5-[7-(2-Dimethylaminoethoxy-pyridin-4-yl)-2-morpholin-4-yl-6,7-dihydro-5H-pyrrolo[2,3-d]pyrimidin-4-yl]-pyrimidin-2-ylamine], for which the inhibition at 2.5 µM in assay [1] came out at 89%; in assay [2], 82%; in assay [3], 86%. Moreover, the IC50 at human PI3K(p110α/p85α) is 0.018 µM.
On to `CCN1CCN(c2cc(N3CCc4c(-c5cnc(N)nc5)nc(N5CCOCC5)nc43)ccn2)CC1` [Example H-34, 5-{7-[2-(4-Ethyl-piperazin-1-yl)-pyridin-4-yl]-2-morpholin-4-yl-6,7-dihydro-5H-pyrrolo[2,3-d]pyrimidin-4-yl}-pyrimidin-2-ylamine], for which the values for the inhibition at 2.5 µM in assay [1], in assay [2] and in assay [3] were 91%, 81% and 89%, respectively. Besides, the IC50 at human PI3K(p110α/p85α) is 0.011 µM.
